Assay results reported in ChEMBL document CHEMBL1201862, “PubChem BioAssay data set” (2004).
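In this assay, cells in 96-well plates receive the compound at five concentrations for 48 hours. Endpoints are linearly interpolated between the surrounding concentrations. Abbreviation: GI50, concentration required for 50% inhibition of growth.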 Activity calls are given as the source filed them. No stated cut-off is given here; in the data, active = GI50 up to about 1.1 µM and inactive = higher.

Columns and labels:
Assay in all cases: inhibition of tumour cell growth, NCI panel, 48 h
MOLT-4 = tested on: MOLT-4
NCI/ADR-RES = tested on: NCI/ADR-RES
HCC 2998 = tested on: HCC 2998
TK-10 = tested on: TK-10
Hs-578T = tested on: Hs-578T
UACC-62 = tested on: UACC-62
MDA-MB-435 = tested on: MDA-MB-435
OVCAR-3 = tested on: OVCAR-3
PC-3 = tested on: PC-3
EKVX = tested on: EKVX
K562 = tested on: K562
SW-620 = tested on: SW-620
SK-MEL-2 = tested on: SK-MEL-2
SK-MEL-5 = tested on: SK-MEL-5
MDA-MB-231 = tested on: MDA-MB-231
NCI-H460 = tested on: NCI-H460
SNB-75 = tested on: SNB-75
SR = tested on: SR
UO-31 = tested on: UO-31
UACC-257 = tested on: UACC-257
NCI-H522 = tested on: NCI-H522
SF-295 = tested on: SF-295
ACHN = tested on: ACHN
HCT-15 = tested on: HCT-15
786-0 = tested on: 786-0
MDA-N = tested on: MDA-N
Malme-3M = tested on: Malme-3M
A549 = tested on: A549
SN12C = tested on: SN12C
OVCAR-4 = tested on: OVCAR-4
OVCAR-5 = tested on: OVCAR-5
LOX IMVI = tested on: LOX IMVI
HT-29 = tested on: HT-29
A498 = tested on: A498
KM12 = tested on: KM12
HOP-92 = tested on: HOP-92
SF-268 = tested on: SF-268
HOP-62 = tested on: HOP-62
NCI-H226 = tested on: NCI-H226
NCI-H23 = tested on: NCI-H23
T47D = tested on: T47D
BT-549 = tested on: BT-549
DU-145 = tested on: DU-145
RXF 393 = tested on: RXF 393
HCT-116 = tested on: HCT-116
U-251 = tested on: U-251
SNB-19 = tested on: SNB-19
M14 = tested on: M14
CAKI-1 = tested on: CAKI-1
IGROV-1 = tested on: IGROV-1
SK-MEL-28 = tested on: SK-MEL-28
COLO 205 = tested on: COLO 205
SF-539 = tested on: SF-539
CCRF-CEM = tested on: CCRF-CEM
SK-OV-3 = tested on: SK-OV-3
OVCAR-8 = tested on: OVCAR-8
MCF7 = tested on: MCF7
HL-60 = tested on: HL-60
RPMI-8226 = tested on: RPMI-8226

CCOc1ccccc1Nc1ccc(N)cc1S(=O)(=O)O
GI50 (MOLT-4): > 100 µM (inactive)
GI50 (NCI/ADR-RES): > 100 µM (inactive)
GI50 (HCC 2998): > 100 µM (inactive)
GI50 (TK-10): > 100 µM (inactive)
GI50 (Hs-578T): > 100 µM (inactive)
GI50 (UACC-62): > 100 µM (inactive)
GI50 (MDA-MB-435): > 100 µM (inactive)
GI50 (OVCAR-3): > 100 µM (inactive)
GI50 (PC-3): > 100 µM (inactive)
GI50 (EKVX): > 100 µM (inactive)
GI50 (K562): > 100 µM (inactive)
GI50 (SW-620): > 100 µM (inactive)
GI50 (SK-MEL-2): > 100 µM (inactive)
GI50 (SK-MEL-5): > 100 µM (inactive)
GI50 (MDA-MB-231): > 100 µM (inactive)
GI50 (NCI-H460): > 100 µM (inactive)
GI50 (SNB-75): > 100 µM (inactive)
GI50 (SR): > 100 µM (inactive)
GI50 (UO-31): > 100 µM (inactive)
GI50 (UACC-257): > 100 µM (inactive)
GI50 (NCI-H522): > 100 µM (inactive)
GI50 (SF-295): > 100 µM (inactive)
GI50 (ACHN): > 100 µM (inactive)
GI50 (HCT-15): > 100 µM
GI50 (786-0): > 100 µM (inactive)
GI50 (MDA-N): > 100 µM (inactive)
GI50 (Malme-3M): > 100 µM (inactive)
GI50 (A549): > 100 µM (inactive)
GI50 (SN12C): > 100 µM (inactive)
GI50 (OVCAR-4): > 100 µM (inactive)
GI50 (OVCAR-5): > 100 µM (inactive)
GI50 (LOX IMVI): > 100 µM (inactive)
GI50 (HT-29): > 100 µM (inactive)
GI50 (A498): > 100 µM (inactive)
GI50 (KM12): > 100 µM (inactive)
GI50 (HOP-92): > 100 µM (inactive)
GI50 (SF-268): > 100 µM (inactive)
GI50 (HOP-62): > 100 µM (inactive)
GI50 (NCI-H226): > 100 µM (inactive)
GI50 (NCI-H23): > 100 µM (inactive)
GI50 (T47D): > 100 µM (inactive)
GI50 (BT-549): > 100 µM (inactive)
GI50 (DU-145): > 100 µM (inactive)
GI50 (RXF 393): > 100 µM (inactive)
GI50 (HCT-116): > 100 µM (inactive)
GI50 (U-251): > 100 µM (inactive)
GI50 (SNB-19): > 100 µM (inactive)
GI50 (M14): > 100 µM (inactive)
GI50 (CAKI-1): > 100 µM (inactive)
GI50 (IGROV-1): > 100 µM (inactive)
GI50 (SK-MEL-28): > 100 µM (inactive)

N#CS/C(Cl)=C(/C(Cl)=C(Cl)Cl)[N+](=O)[O-]
GI50 (MOLT-4): 36.3 µM (inactive)
GI50 (NCI/ADR-RES): 28.4 µM (inactive)
GI50 (HCC 2998): 39.8 µM (inactive)
GI50 (TK-10): > 100 µM (inactive)
GI50 (Hs-578T): 16.6 µM (inactive)
GI50 (UACC-62): 47.2 µM (inactive)
GI50 (OVCAR-3): 21.9 µM (inactive)
GI50 (PC-3): 35.2 µM (inactive)
GI50 (EKVX): > 100 µM (inactive)
GI50 (K562): 40.7 µM (inactive)
GI50 (SW-620): 29.7 µM (inactive)
GI50 (SK-MEL-5): 49.7 µM (inactive)
GI50 (COLO 205): 30.5 µM (inactive)
GI50 (MDA-MB-231): 52.5 µM (inactive)
GI50 (NCI-H460): 42.8 µM (inactive)
GI50 (SF-539): 32.9 µM (inactive)
GI50 (SNB-75): 32.3 µM (inactive)
GI50 (SR): 24.7 µM (inactive)
GI50 (UO-31): 24.5 µM (inactive)
GI50 (UACC-257): 36.6 µM (inactive)
GI50 (CCRF-CEM): 33 µM (inactive)
GI50 (SF-295): 53.2 µM (inactive)
GI50 (ACHN): 31.3 µM (inactive)
GI50 (HCT-15): 20.9 µM
GI50 (786-0): 28.2 µM (inactive)
GI50 (MDA-N): 34.6 µM (inactive)
GI50 (Malme-3M): 20.7 µM (inactive)
GI50 (SK-OV-3): > 100 µM (inactive)
GI50 (A549): > 100 µM (inactive)
GI50 (SN12C): 36.9 µM (inactive)
GI50 (OVCAR-4): 48.3 µM (inactive)
GI50 (OVCAR-5): > 100 µM (inactive)
GI50 (OVCAR-8): 34.4 µM (inactive)
GI50 (LOX IMVI): 19.6 µM (inactive)
GI50 (MCF7): 29.9 µM (inactive)
GI50 (HT-29): 34.5 µM (inactive)
GI50 (A498): 79.6 µM (inactive)
GI50 (KM12): 47.6 µM (inactive)
GI50 (SF-268): 38 µM (inactive)
GI50 (HOP-62): > 100 µM (inactive)
GI50 (NCI-H226): > 100 µM (inactive)
GI50 (NCI-H23): 33.3 µM (inactive)
GI50 (T47D): 37.2 µM (inactive)
GI50 (BT-549): 36.8 µM (inactive)
GI50 (DU-145): > 100 µM (inactive)
GI50 (RXF 393): 47.3 µM (inactive)
GI50 (HCT-116): 25.4 µM (inactive)
GI50 (HL-60): 29.1 µM (inactive)
GI50 (U-251): 35.8 µM (inactive)
GI50 (SNB-19): 1.89 µM (inactive)
GI50 (M14): 34.4 µM (inactive)
GI50 (CAKI-1): 35.4 µM (inactive)
GI50 (IGROV-1): 37.5 µM (inactive)
GI50 (SK-MEL-28): 29.4 µM (inactive)

O=C(O)C1OC1C(=O)O (centres undefined)
GI50 (NCI/ADR-RES): > 100 µM (inactive)
GI50 (HCC 2998): > 100 µM (inactive)
GI50 (TK-10): > 100 µM (inactive)
GI50 (Hs-578T): > 100 µM (inactive)
GI50 (UACC-62): > 100 µM (inactive)
GI50 (MDA-MB-435): > 100 µM (inactive)
GI50 (OVCAR-3): > 100 µM (inactive)
GI50 (EKVX): > 100 µM (inactive)
GI50 (K562): > 100 µM (inactive)
GI50 (SW-620): > 100 µM (inactive)
GI50 (SK-MEL-2): > 100 µM (inactive)
GI50 (SK-MEL-5): > 100 µM (inactive)
GI50 (COLO 205): > 100 µM (inactive)
GI50 (MDA-MB-231): > 100 µM (inactive)
GI50 (NCI-H460): > 100 µM (inactive)
GI50 (SNB-75): > 100 µM (inactive)
GI50 (SR): > 100 µM (inactive)
GI50 (UO-31): > 100 µM (inactive)
GI50 (UACC-257): > 100 µM (inactive)
GI50 (NCI-H522): > 100 µM (inactive)
GI50 (SF-295): > 100 µM (inactive)
GI50 (ACHN): > 100 µM (inactive)
GI50 (HCT-15): > 100 µM
GI50 (786-0): > 100 µM (inactive)
GI50 (MDA-N): > 100 µM (inactive)
GI50 (Malme-3M): > 100 µM (inactive)
GI50 (SK-OV-3): > 100 µM (inactive)
GI50 (A549): > 100 µM (inactive)
GI50 (SN12C): > 100 µM (inactive)
GI50 (OVCAR-4): > 100 µM (inactive)
GI50 (OVCAR-5): > 100 µM (inactive)
GI50 (OVCAR-8): > 100 µM (inactive)
GI50 (LOX IMVI): > 100 µM (inactive)
GI50 (MCF7): > 100 µM (inactive)
GI50 (HT-29): > 100 µM (inactive)
GI50 (A498): > 100 µM (inactive)
GI50 (KM12): > 100 µM (inactive)
GI50 (HOP-92): > 100 µM (inactive)
GI50 (SF-268): > 100 µM (inactive)
GI50 (HOP-62): > 100 µM (inactive)
GI50 (NCI-H226): > 100 µM (inactive)
GI50 (NCI-H23): > 100 µM (inactive)
GI50 (T47D): > 100 µM (inactive)
GI50 (BT-549): > 100 µM (inactive)
GI50 (DU-145): > 100 µM (inactive)
GI50 (RXF 393): > 100 µM (inactive)
GI50 (HCT-116): > 100 µM (inactive)
GI50 (U-251): > 100 µM (inactive)
GI50 (SNB-19): > 100 µM (inactive)
GI50 (M14): > 100 µM (inactive)
GI50 (CAKI-1): > 100 µM (inactive)
GI50 (IGROV-1): > 100 µM (inactive)
GI50 (SK-MEL-28): > 100 µM (inactive)
GI50 (RPMI-8226): > 100 µM (inactive)
